From patent US20080139596A1, “Modulators of Hcv Replication” (priority 2004, published 2008)

Key:
[1] = tested on: hyperphosphorylated NS5A (p58) in HB68 cells; assay: NS5A hyperphosphorylation assay (radiolabelling, immunoprecipitation, SDS-PAGE); assay type: cell-based, Hepatitis C virus; conditions: 5 μM; for formation of the hyperphosphorylated form of NS5A (p58) / NS5A phosphorylation: 35S-methionine or 32P-orthophosphate labelling
Experimental: The presence of hyperphosphorylated NS5A (p58) was evaluated in Huh7-HB68 cells. Proteins were labeled either with ^35S-methionine (lanes 2-5) or with ^32P-orthophosphate (lanes 7-10) in the presence of DMSO (lanes 2 and 7) or with 5 μM of Compound (1) (lanes 3 and 8), Compound (2) (lanes 4 and 9) or SB203580 (lanes 5 and 10). After the radiolabelling, protein extract was prepared, NS5A was immunoprecipitated and proteins were loaded on a 7.5% SDS-PAGE and autoradiographed. The sizes of molecular weight marker proteins are indicated in lanes 1 and 6.
Inhibition of NS5A hyperphosphorylation in intact cells was measured by determining the amount of hyperphosphorylated NS5A (p58) in cells expressing HCV NS5A in the context of a polyprotein comprising at least NS3, NS4A, NS4B, and NS5A (Neddermann et al., J Virol 73, 9984-9991, 1999). […] HBI10 and HB68 are Huh-7 derived-cell lines described in WO2002/059321.
Hyperphosphorylated NS5A was detected as a protein that i) migrates with an apparent molecular weight of about 58 kDa in SDS PAGE, and ii) is immunoreactive with anti-NS5A antibodies. Thus, the amount of hyperphosphorylated NS5A was detected by immunoprecipitation of radioactively labeled proteins.
HBI10 or HB68 were cultured in Dulbecco's modified Eagle medium (DMEM) supplemented with 10% fetal bovine serum (FBS) in the presence of 0.8 mg/ml of G418 (Geneticin; Gibco/BRL). For starvation prior to radioactive protein labeling, minimal essential medium without methionine (Gibco/BRL) was used. For protein labeling, 100 μCi/ml of ^35S-labelled methionine (Promix, Amersham, Cat. No. SJQ0079, 1000 Ci/mmole) was added to the cells.
• 1. HBI10 or HB68 cells were grown to 80% confluency in 6-well plates. • 2. Compound to be tested, dissolved in DMSO at 100× concentration, was added to each well. • 3. One hour later, the medium was removed and replaced with Minimal Essential Medium without methionine. This step is omitted in the case of 32P-orthophosphate labeling. • 4. Compound to be tested, dissolved in DMSO at 100× concentration, was freshly added to each well. • 5. One hour later 100 μCi of ^35S-labelled methionine per ml of Minimal Essential Medium without methionine was added to each well for 35S-metabolic labeling together with the compound to be tested, dissolved in DMSO at 100× concentration. In the case of 32P-labelling, cells were washed once with Dulbecco's modified Eagle's medium without phosphate (ICN) and labeled for 4 hours in the same medium containing 500 μCi/ml of [32P]-orthophosphate (285.5 Ci/mg, NEN) together with the compound to be tested, dissolved in DMSO at 100× concentration. • 6. After 4 hours, cells were harvested from each well and individual cell extracts were prepared in 100 μl of cell lysis buffer. • 7. […]

wild type Con1 replicon = assay: Beta-lactamase gene reporter assay (BLA-assay), replicon electroporated in 10A-IFN cells; assay type: cell-based, Hepatitis C virus; conditions: 8 μM, added two hours after electroporation, 4 days of incubation
Experimental: The BLA-assay was performed after 4 days of incubation in the presence of the compounds to be tested according to Murray et al., J Virol 77, 2928-35, 2003. Briefly, medium was removed, and cells were stained for 90 min with CCF4-AM (Aurora Biosciences Corp.) in Dulbecco's modified Eagle's medium supplemented with 25 mM HEPES, pH 8.0. For quantitation of the fraction of cells harboring bla replicons, cells were photographed by using a digital charge-coupled device color camera and green and blue cells were counted. Another method for measuring beta-lactamase activity is using a fluorescence plate reader that quantitates the amount of green (530 nm) or blue (460 nm) fluorescence emitted by cells stimulated with light of 405 nm.
A subgenomic replicon was used in which the original neomycin phosphotransferase (neo) gene was replaced by the β-lactamase (bla) gene (WO2003089672 A1 and Murray et al., J Virol 77, 2928-2935, 2003). Cells actively replicating HCV express β-lactamase and show a fluorescent blue staining after incubation with a diffusible β-lactamase substrate (BLA-assay). Replicon RNA was electroporated in 10A-IFN cells and compounds were added at a concentration of 8 μM two hours after electroporation. The BLA-assay was performed after 4 days of incubation in the presence of the compounds to be tested according to Murray et al., J Virol 77, 2928-35, 2003. Briefly, medium was removed, and cells were stained for 90 min with CCF4-AM (Aurora Biosciences Corp.) in Dulbecco's modified Eagle's medium supplemented with 25 mM HEPES, pH 8.0. For quantitation of the fraction of cells harboring bla replicons, cells were photographed by using a digital charge-coupled device color camera and green and blue fluorescent cells were counted. Alternatively, fluorescence was measured by using a CytoFluor 4000 fluorescence plate reader.
The control compound SB203580 had no effect on HCV replication.

wt Con1 replicon [2] = assay type: cell-based; conditions: 8 μM; 4 days of incubation; wt Con1 replicon in 10A-IFN cells
[3] = tested on: replicon m17 (E1202G in NS3); assay type: cell-based; conditions: 8 μM; 4 days of incubation; replicon m17 in 10A-IFN cells
[4] = tested on: subgenomic replicons with the synergistic mutation in NS3 (m17); assay: HCV-specific RNA by real-time reverse transcription PCR (TaqMan) in 10A-IFN cells; assay type: cell-based, Hepatitis C virus; conditions: 8 μM; 4 days; m17 replicon in 10A-IFN cells; quantitative PCR
Experimental: (§1) RNA was transcribed from the plasmids wt, wt-GAA, m17, SA, m17/SA and m17-GAA and electroporated into 10A-IFN cells. Cells were incubated for four days without or with 8 μM of Compound (1), Compound (2) or SB203580.
(§2) (A) HCV-specific RNA analysis using quantitative RT-PCR. Total cellular RNA was extracted and HCV-specific RNA was quantified as described in Materials and Methods. On the Y-axis is shown the fold-induction with respect to the DMSO control (black bar), Compound (1) (dark grey bar), Compound (2) (light grey bar) or SB203580 (dotted bar). Replicon RNA is indicated at the bottom of the figure.
(§3) Replicon RNA was extracted from selected clones either using the Qiagen RNAeasy minikit following manufacturer instructions or as described by Chomczynski et al., 1987. Anal. Biochem. 162, 156-159. TaqMan analysis was typically performed using 10 ng of RNA in a reaction mix (TaqMan Gold RT-PCR kit, Perkin Elmer Biosystems) either with HCV specific oligos/probe (as disclosed in published International application WO02/059321) or with human beta-actin specific oligos/probe (Pre-Developed TaqMan Assay Reagents, Endogenous Control Human beta-actin, Part Number 4310881E, Applied Biosystems). PCR was performed using a Perkin Elmer ABI PRISM 7700 under the following conditions: 30 minutes at 48° C. (the RT step), 10 minutes at 95° C. and 40 cycles: 15 seconds at 95° C. and 1 minute at 60° C. Quantitative calculations were obtained using the Comparative CT Method (described in User Bulletin #2, ABI PRISM 7700 Sequence Detection System, Applied Biosystem, December 1997) considering the level of GAPDH mRNA constant. All calculations of HCV RNA are expressed as fold difference over a specific control.
(§4) A similar experiment was carried out in order to detect HCV-specific RNA using real-time reverse transcription PCR amplification (FIG. 2A). […] Compound (1) induced replication of wt Con1 replicon 6-fold as measured by quantitative PCR, whereas induction of replication by the other compounds was below background (wt). […]

wt Con1 replicon [5] = assay: as above; assay type: cell-based, Hepatitis C virus; conditions: 8 μM; 4 days; wt Con1 replicon in 10A-IFN cells; quantitative PCR
Experimental: as §1, §2, §3, §4

[6] = tested on: Con1 replicon carrying the adaptive mutation S2204I (SI); assay type: cell-based, Hepatitis C virus; conditions: SI replicon (low amounts of hyperphosphorylated NS5A); 10A-IFN cells; 4 days; Cell-ELISA; read-out: IC50, inhibition of HCV replication
[7] = tested on: Con1 replicon carrying the adaptive mutation A2199T (AT); assay type: cell-based, Hepatitis C virus; conditions: AT replicon (high amounts of hyperphosphorylated NS5A); 10A-IFN cells; 4 days; Cell-ELISA; read-out: IC50, inhibition of HCV replication

CNc1nccc(-c2[nH]c(C3CCNCC3)nc2-c2cccc(C(F)(F)F)c2)n1 [Compound (1), N-methyl-4-{2-piperidin-4-yl-4-[3-(trifluoromethyl)phenyl]-1H-imidazol-5-yl}pyrimid-2-amine]
formation of the hyperphosphorylated form of NS5A (p58) / NS5A phosphorylation [1]: inhibited the formation of the hyperphosphorylated form of NS5A
HCV replication (fluorescent blue cells, BLA-assay) (wild type Con1 replicon): resulted in the production of fluorescent blue cells
presence of NS5A by immunoblot (wt Con1 replicon [2]): NS5A could be detected
activation of replication (NS5A by immunoblot) [3]: more potent
fold-induction of HCV-RNA with respect to the DMSO control [4]: 312 fold
fold-induction of HCV-RNA with respect to the DMSO control (wt Con1 replicon [5]): 6 fold
IC50 [6]: 500 nM
IC50 [7]: 5000 nM

C[S+]([O-])c1ccc(-c2nc(-c3ccncc3)c(-c3ccc(F)cc3)[nH]2)cc1 (stereo not shown) [SB203580, reference compound]
NS5A expression [1]: no effect
formation of the hyperphosphorylated form of NS5A (p58) / NS5A phosphorylation [1]: no effect
HCV replication (fluorescent blue cells, BLA-assay) (wild type Con1 replicon): no effect
presence of NS5A by immunoblot (wt Con1 replicon [2]): no NS5A was visible

CN1CCC(c2nc(-c3ccncc3)c(-c3ccc(F)cc3)[nH]2)CC1 [Compound (2), 4-[5-(4-fluorophenyl)-2-(1-methylpiperidin-4-yl)-1H-imidazol-4-yl]pyridine]
formation of the hyperphosphorylated form of NS5A (p58) / NS5A phosphorylation [1]: inhibited the formation of the hyperphosphorylated form of NS5A
HCV replication (fluorescent blue cells, BLA-assay) (wild type Con1 replicon): resulted in the production of fluorescent blue cells
presence of NS5A by immunoblot (wt Con1 replicon [2]): no protein was visible
activation of replication (NS5A by immunoblot) [3]: less potent activator
fold-induction of HCV-RNA with respect to the DMSO control [4]: 58 fold
IC50 [6]: 500 nM
IC50 [7]: 5000 nM
